Experiments:
[1] = system: beet armyworm (Spodoptera exigua); test: Insecticidal test on treated lepidopteran diet, beet armyworm; type: in vivo; details: 120 h, second-instar larvae on treated diet, 8 wells, dose of 50 mg/cm^2 [sic] (2000 ppm, 50 μL), dead insects counted 5 days after treatment, read-out: AVG LAPHEG 50 (percent control, beet army worm)
Protocol: (§1) The compounds identified in Table 1 were prepared according to the previous methods and were tested against beet armyworm and corn earworm as follows:
(§2) Insecticidal Test for Corn Earworm (Helicoverpa zea) and Beet Armyworm (Spodoptera exigua).
(§3) To prepare test solution, the test compound was formulated at 2000 ppm solution as 4 mg/2 mL of 9 acetone:1 tap water. 50 μL of the 2000 ppm (equivalent to 50 μg/cm^2 dose on diet surface area) test solution was pipetted upon the surface of 1 mL of lepidopteran diet (Southland Multi-Species Lepidopteran Diet) contained in each of eight wells per insect species (one well=1 replication). A second-instar corn earworm and beet armyworm was placed upon the treated diet in each well once the solvent had air-dried. Trays containing the treated diet and larvae were covered and then held in a growth chamber at 25° C., 50-55% RH, and 16 hr light:8 hr dark for 5 days. Observation were conducted 5 days after treatment and infestation. The number of dead insects of 8 per species per treatment was then determined and the results are given in Table 1 as a percent control at a dose of […].
(§4) Keys to the table: Mass spectral data were obtained using liquid chromatography mass spectroscopy (LC-MS). The masses are detected using electrospray ionization (ESI) and reported as Mol Ion (M+H, M−H); AVG LAPHEG 50 refers to activity against beet army worm (Spodoptera exigua) as defined above; AVG HELIZE 50 refers to activity against corn ear worm (Helicoverpa zea) as described above.

[2] = system: corn earworm (Helicoverpa zea); test: Insecticidal test on treated lepidopteran diet, corn earworm; type: in vivo; details: 120 h; second-instar larvae on treated diet, 8 wells; dose of 50 mg/cm^2 [sic] (2000 ppm, 50 μL); dead insects counted 5 days after treatment; read-out: AVG HELIZE 50 (percent control, corn ear worm)
Protocol: as §1, §2, §3, §4

Structure (SMILES)	pest or weed control at 2000 µg/mL [1] [%]	pest or weed control at 2000 µg/mL [2] [%]
FC(F)C(F)(F)Oc1ccc(/C=N/Nc2nc(Nc3ccc(OC(F)(F)F)cc3)nc(N3CCOCC3)n2)cc1 [Compound 1, (4-Morpholin-4-yl-6-{N′-[4-(1,1,2,2-tetrafluoroethoxy)benzylidene]hydrazino}-1,3,5-triazin-2-yl)-(4-trifluoromethoxyphenyl)amine]	100	100
Fc1ccc(Nc2nc(NCc3ccc(Cl)nc3)nc(N/N=C/c3ccc(OC(F)(F)F)cc3)n2)cc1C(F)(F)F [Compound 2, N-(6-Chloropyridin-3-ylmethyl)-N′-(4-fluoro-3-trifluoromethylphenyl)-6-{N′-[1-(4-trifluoromethoxyphenyl)-methylidene]-hydrazino}-[1,3,5]triazine-2,4-diamine]	100	100
Fc1ccc(Nc2ncnc(N/N=C/c3ccc(OC(F)(F)F)cc3)n2)cc1C(F)(F)F [Compound 3, (4-Fluoro-3-trifluoromethylphenyl)-(4-{N′-[1-(4-trifluoromethoxyphenyl)-methylidene]-hydrazino}-[1,3,5]triazin-2-yl)-amine]	100	100
FC(F)(F)Oc1ccc(/C=N/Nc2nc(Nc3ccc(OC(F)(F)F)cc3)nc(N3CCOCC3)n2)cc1 [Compound 4]	100	100
C/C(=N\Nc1nc(Nc2ccc(OC(F)(F)F)cc2)nc(N2CCOCC2)n1)c1cccc(C#N)c1 [Compound 5]	100	100
O=C1CN(c2nc(N/N=C/c3ccc(OC(F)(F)F)cc3)nc(Nc3ccc(OC(F)(F)F)cc3)n2)CCN1 [Compound 6]	100	100
O=C1CN(c2nc(N/N=C/c3cccc(C(F)(F)F)c3)nc(Nc3ccc(OC(F)(F)F)cc3)n2)CCN1 [Compound 7]	100	100
CCOc1nc(N/N=C/c2ccc(OC(F)(F)F)cc2)nc(Nc2ccc(OC(F)(F)F)cc2)n1 [Compound 8]	25	25
CCOc1nc(N/N=C/c2cccc(C(F)(F)F)c2)nc(Nc2ccc(OC(F)(F)F)cc2)n1 [Compound 10]	13	0
CCOc1nc(N/N=C/c2ccc(F)cc2)nc(Nc2ccc(OC(F)(F)F)cc2)n1 [Compound 11]	13	100
CCOc1nc(N/N=C/c2ccc(OC(F)(F)F)cc2)nc(Nc2cccc(C(F)(F)F)c2)n1 [Compound 12]	100	100
CCOc1nc(N/N=C/c2cccc(C(F)(F)F)c2)nc(Nc2cccc(C(F)(F)F)c2)n1 [Compound 13]	0	75
CCOc1nc(N/N=C/c2ccc(OC)cc2)nc(Nc2cccc(C(F)(F)F)c2)n1 [Compound 14]	25	13
COCCNc1nc(N/N=C/c2ccc(OC(F)(F)F)cc2)nc(Nc2ccc(OC(F)(F)F)cc2)n1 [Compound 15]	100	88
CCNc1nc(N/N=C/c2ccc(OC(F)(F)F)cc2)nc(Nc2ccc(OC(F)(F)F)cc2)n1 [Compound 16]	13	0
COCCNc1nc(N/N=C/c2ccc(F)cc2)nc(Nc2ccc(OC(F)(F)F)cc2)n1 [Compound 17]	50	63
CCNc1nc(N/N=C/c2ccc(F)cc2)nc(Nc2ccc(OC(F)(F)F)cc2)n1 [Compound 18]	75	38
COCCNc1nc(N/N=C/c2ccc(OC(F)(F)F)cc2)nc(Nc2cccc(C(F)(F)F)c2)n1 [Compound 19]	100	75
FC(F)(F)Oc1ccc(/C=N/Nc2nc(NCCN3CCOCC3)nc(Nc3ccc(OC(F)(F)F)cc3)n2)cc1 [Compound 21]	100	100
COCCN(C)c1nc(N/N=C/c2ccc(OC(F)(F)F)cc2)nc(Nc2ccc(OC(F)(F)F)cc2)n1 [Compound 22]	50	13
CCOC(=O)CN(C)c1nc(N/N=C/c2ccc(OC(F)(F)F)cc2)nc(Nc2ccc(OC(F)(F)F)cc2)n1 [Compound 23]	25	0
COCC(C)Nc1nc(N/N=C/c2ccc(OC(F)(F)F)cc2)nc(Nc2ccc(OC(F)(F)F)cc2)n1 (stereo not shown) [Compound 24]	100	100

Structure (SMILES)	pest or weed control at 2000 µg/mL [1] [%]	pest or weed control at 2000 µg/mL [2] [%]
CCOCCNc1nc(N/N=C/c2ccc(OC(F)(F)F)cc2)nc(Nc2ccc(OC(F)(F)F)cc2)n1 [Compound 25]	100	100
CCOC(=O)CNc1nc(N/N=C/c2ccc(OC(F)(F)F)cc2)nc(Nc2ccc(OC(F)(F)F)cc2)n1 [Compound 26]	50	100
FC(F)(F)COc1nc(N/N=C/c2cccc(Cl)c2)nc(Nc2ccc(OC(F)(F)F)cc2)n1 [Compound 27]	100	100
FC(F)C(F)(F)Oc1cccc(/C=N/Nc2nc(Nc3ccc(OC(F)(F)F)cc3)nc(OCC(F)(F)F)n2)c1 [Compound 28]	100	100
FC(F)(F)COc1nc(N/N=C/c2cccc(Br)c2)nc(Nc2ccc(OC(F)(F)F)cc2)n1 [Compound 29]	100	100
FC(F)(F)COc1nc(N/N=C/c2ccc(Cl)c(Cl)c2)nc(Nc2ccc(OC(F)(F)F)cc2)n1 [Compound 30]	100	100
Fc1ccccc1/C=N/Nc1nc(Nc2ccc(OC(F)(F)F)cc2)nc(OCC(F)(F)F)n1 [Compound 31]	100	100
FC(F)(F)COc1nc(N/N=C/c2ccccc2C(F)(F)F)nc(Nc2ccc(OC(F)(F)F)cc2)n1 [Compound 32]	100	100
Fc1cc(/C=N/Nc2nc(Nc3ccc(OC(F)(F)F)cc3)nc(OCC(F)(F)F)n2)ccc1Cl [Compound 33]	100	100
FC(F)(F)COc1nc(N/N=C/c2ccccc2Br)nc(Nc2ccc(OC(F)(F)F)cc2)n1 [Compound 34]	100	100
FC(F)(F)COc1nc(N/N=C/c2c(Cl)cccc2Cl)nc(Nc2ccc(OC(F)(F)F)cc2)n1 [Compound 35]	100	100
FC(F)(F)COc1nc(N/N=C/c2ccccc2OC(F)(F)F)nc(Nc2ccc(OC(F)(F)F)cc2)n1 [Compound 36]	100	100
FC(F)(F)Oc1ccc(Nc2nc(N/N=C/c3cccc(Cl)c3)nc(N3CCOCC3)n2)cc1 [Compound 37]	75	100
FC(F)(F)Oc1ccc(Nc2nc(N/N=C/c3cccc(Br)c3)nc(N3CCOCC3)n2)cc1 [Compound 38]	0	100
FC(F)(F)Oc1ccc(Nc2nc(N/N=C/c3ccc(Cl)c(Cl)c3)nc(N3CCOCC3)n2)cc1 [Compound 39]	88	100
FC(F)(F)Oc1ccc(Nc2nc(N/N=C/c3ccc(Cl)cc3Cl)nc(N3CCOCC3)n2)cc1 [Compound 40]	25	0
FC(F)(F)Oc1ccc(Nc2nc(N/N=C/c3ccccc3C(F)(F)F)nc(N3CCOCC3)n2)cc1 [Compound 41]	13	0
Fc1cc(/C=N/Nc2nc(Nc3ccc(OC(F)(F)F)cc3)nc(N3CCOCC3)n2)ccc1Cl [Compound 42]	88	100
FC(F)(F)Oc1ccc(Nc2nc(N/N=C/c3ccccc3Br)nc(N3CCOCC3)n2)cc1 [Compound 43]	13	0
FC(F)(F)Oc1ccc(Nc2nc(N/N=C/c3c(Cl)cccc3Cl)nc(N3CCOCC3)n2)cc1 [Compound 44]	13	0
FC(F)(F)Oc1ccc(Nc2nc(N/N=C/c3ccccc3OC(F)(F)F)nc(N3CCOCC3)n2)cc1 [Compound 45]	38	13
CC1CN(c2nc(N/N=C/c3ccc(OC(F)(F)F)cc3)nc(Nc3ccc(F)c(C(F)(F)F)c3)n2)CC(C)O1 (stereo not shown) [Compound 46]	100	100

From patent US8188273B2, “Insecticidal (1,3,5)-triazinyl phenyl hydrazones” (Dow AgroSciences, LLC., priority 2007, dated 2012)
